From ChEMBL document CHEMBL1914392, “Comparative studies on interactions of baicalein, baicalin and scutellarin with lysozyme” (2011)
In brackets after ≈: the same amount, converted by molar mass. Activity calls are given as the source filed them. The rule behind the calls is not given here.

What was measured:
[1] = species on record: Gallus gallus; experiment: Binding affinity to hen egg white lysozyme assessed as effective quenching constant at 310 K by Lineweaver-Burk plot analysis
[2] = species on record: Gallus gallus; experiment: Binding affinity to hen egg white lysozyme assessed as Stem-Volmer dynamic quenching constant at 310 K by Stern-Volmer plot analysis
[3] = species on record: Gallus gallus; experiment: Binding affinity to hen egg white lysozyme assessed as quenching rate constant at 298 K by Stern-Volmer plot analysis
[4] = species on record: Gallus gallus; experiment: Binding affinity to hen egg white lysozyme assessed as reduction in fluorescence intensity at 1 to 7 x 10^-6 M at 298 K
[5] = system: Staphylococcus aureus; experiment: Antibacterial activity against Staphylococcus aureus; assay type: functional
[6] = species on record: Gallus gallus; experiment: Binding affinity to hen egg white lysozyme at 310 K
[7] = species on record: Gallus gallus; experiment: Binding affinity to hen egg white lysozyme in presence of 2 x10'-3 M
[8] = species on record: Gallus gallus; experiment: Binding affinity to hen egg white lysozyme at 298 K
[9] = system: Staphylococcus aureus; experiment: Antibacterial activity against Staphylococcus aureus in presence of 25 mg/L lysozyme; assay type: functional
[10] = species on record: Gallus gallus; experiment: Binding affinity to hen egg white lysozyme assessed as Stem-Volmer dynamic quenching constant at 298 K by Stern-Volmer plot analysis
[11] = species on record: Gallus gallus; experiment: Binding affinity to hen egg white lysozyme assessed as quenching rate constant at 310 K by Stern-Volmer plot analysis
[12] = species on record: Gallus gallus; experiment: Binding affinity to hen egg white lysozyme assessed as reduction in fluorescence intensity at 1 to 7 x 10^-6 M at 310 K
[13] = species on record: Gallus gallus; experiment: Binding affinity to hen egg white lysozyme assessed as effective quenching constant at 298 K by Lineweaver-Burk plot analysis

O=C(O)[C@H]1O[C@@H](Oc2cc3oc(-c4ccc(O)cc4)cc(=O)c3c(O)c2O)[C@H](O)[C@@H](O)[C@@H]1O [SCUTELLARIN]
Kq [1]: 1.15 ×10⁵ L/mol | KSV [2]: 1.55 ×10⁵ L/mol | Kq [3]: 1.63 ×10¹³ L/mol/s | Activity [4]: Active | MIC50 [5]: 650 µg/mL (≈ 1410 µM) | K [6]: 3.98 ×10⁵ L/mol | K [7]: 2.24 ×10⁶ Lmol | K [8]: 7.76 ×10⁵ L/mol | MIC50 [9]: 500 µg/mL | KSV [10]: 1.63 ×10⁵ L/mol | Kq [11]: 1.55 ×10¹³ L/mol/s | Activity [12]: Active | Kq [13]: 1.25 ×10⁵ L/mol

O=C(O)[C@H]1O[C@@H](Oc2cc3oc(-c4ccccc4)cc(=O)c3c(O)c2O)[C@H](O)[C@@H](O)[C@@H]1O [BAICALIN]
Kq [1]: 1.16 ×10⁵ L/mol | KSV [2]: 1.14 ×10⁵ L/mol | Kq [3]: 1.25 ×10¹³ L/mol/s | Activity [4]: Active | MIC50 [5]: 450 µg/mL (≈ 1010 µM) | K [6]: 1.02 ×10⁵ L/mol | K [7]: 1.17 ×10⁶ Lmol | K [8]: 2.95 ×10⁴ L/mol | MIC50 [9]: 350 µg/mL | KSV [10]: 1.25 ×10⁵ L/mol | Kq [11]: 1.14 ×10¹³ L/mol/s | Activity [12]: Active | Kq [13]: 1.74 ×10⁵ L/mol

O=c1cc(-c2ccccc2)oc2cc(O)c(O)c(O)c12 [BAICALEIN]
Kq [1]: 1.68 ×10⁵ L/mol | KSV [2]: 1.75 ×10⁵ L/mol | Kq [3]: 2.02 ×10¹³ L/mol/s | Activity [4]: Active | MIC50 [5]: 550 µg/mL (≈ 2040 µM) | K [6]: 2.14 ×10⁵ L/mol | K [7]: 1.5 ×10⁸ Lmol | K [8]: 3.39 ×10⁵ L/mol | MIC50 [9]: 350 µg/mL | KSV [10]: 2.02 ×10⁵ L/mol | Kq [11]: 1.75 ×10¹³ L/mol/s | Activity [12]: Active | Kq [13]: 1.77 ×10⁵ L/mol

CC(C)(CO)[C@@H](O)C(=O)NCCC(=O)O
Kq [1]: 5.27 ×10⁴ L/mol | KSV [2]: 8.05 ×10⁴ L/mol | Kq [3]: 1.02 ×10¹³ L/mol/s | KSV [10]: 1.04 ×10⁵ L/mol | Kq [11]: 8.03 ×10¹² L/mol/s | Kq [13]: 1.28 ×10⁵ L/mol
